Experiments:
Format in all cases: in vivo
CHEAL = experiment: Field trial in corn, pre-emergence method: herbicidal effect on CHEAL; conditions: evaluation 36 days after application
Method: (§1) The herbicidal efficacy of the active compounds or active compound mixtures was scored visually using the treated plots in comparison to untreated control plots. The damage and development of all above-ground parts of the plants were recorded. Scoring was carried out using a percentage scale (100% effect=all plants killed; 50% effect=50% of the plants and the green parts of the plants killed; 0% effect no noticeable effect=like control plot). The scores of in each case 4 plots were averaged.
(§2) Crop plants were grown outdoors on plots under natural outdoor conditions, and seeds or rhizome pieces of typical harmful plants were laid out or the natural weed growth was utilized. Treatment with the compositions according to the invention was carried out after the harmful plants had emerged and the crop plants were, generally, at the 2- to 4-leaf stage; in some cases (as stated), application of individual active compounds or active compound combinations was carried out pre-emergence (cf. Section 1) or post-emergence (cf. Section 2) or as a sequential treatment partly pre-emergence and/or post-emergence. After the application, for example 2, 4, 6 and 8 weeks after the application, the effect of the preparations was scored visually by comparison with untreated controls (cf. scoring in Section 1). In the field trial as well, the compositions according to the invention have synergistic herbicidal activity against a broad spectrum of economically important weed grasses and broad-leaved weeds. […] Moreover, the effects in essential phases of the scoring period were above the expected values according to Colby, also indicating synergism. In contrast, the crop plants were, as a consequence of the treatments with the herbicidal compositions, damaged only to a small degree, if at all.
(§3) The numbers in the columns of the table under the designations of the harmful plants and the crop plants relate to the herbicidal effects or damage to the plants in percent.

ECHCG = experiment: Field trial in corn, pre-emergence method: herbicidal effect on ECHCG; conditions: evaluation 36 days after application
Method: as §1, §2, §3

Corn = experiment: Field trial in corn, pre-emergence method: crop damage
Method: as §1, §2, §3

[1] = test system: APESV = Apera spica-venti (common wind grass); experiment: Field trial in winter wheat, post-emergence method: herbicidal effect on APESV; conditions: post-emergence at middle tillering stage, evaluation 21 days after application, dose 50 g ai/ha
Method: as §1
(§4) Crop plants were grown outdoors on plots under natural outdoor conditions, and seeds or rhizome pieces of typical harmful plants were laid out or the natural weed growth was utilized. Treatment with the compositions according to the invention was carried out after the harmful plants had emerged and the crop plants were, generally, at the 2- to 4-leaf stage; in some cases (as stated), application of individual active compounds or active compound combinations was carried out pre-emergence (cf. Section 1) or post-emergence (cf. Section 2) or as a sequential treatment partly pre-emergence and/or post-emergence. After the application, for example 2, 4, 6 and 8 weeks after the application, the effect of the preparations was scored visually by comparison with untreated controls (cf. scoring in Section 1). […]

Winter wheat = experiment: Field trial in winter wheat, post-emergence method: crop damage; conditions: post-emergence at middle tillering stage, evaluation 21 days after application, dose 50 g ai/ha
Method: as §1, §4

[2] = field trial, pre-emergence, evaluation 36 days after application, dose 75 g ai/ha

## CC(F)c1nc(N)nc(C(C)c2ccc(F)c(F)c2)n1 (stereo not shown) [(A11), 2-amino-4-(1-fluoroethyl)-6-[1-(3,4-difluorophenyl)ethyl]-1,3,5-triazine]
CHEAL; dose 75 g ai/ha
  CHEAL [effect in %]: 0%
ECHCG; dose 75 g ai/ha
  ECHCG [effect in %]: 0%
Corn; [2]
  Corn [damage in %]: 0%

## CCC(F)c1nc(N)nc(C(C)c2ccc(F)c(C)c2)n1 (stereo not shown) [(A20), 2-amino-4-(1-fluoropropyl)-6-[1-(3-methyl-4-fluorophenyl)ethyl]-1,3,5-triazine]
CHEAL; dose 75 g ai/ha
  CHEAL [effect in %]: 20%
ECHCG; dose 75 g ai/ha
  ECHCG [effect in %]: 0%
Corn; [2]
  Corn [damage in %]: 0%

## CCC(F)c1nc(N)nc(C(C)c2ccc(F)c(Cl)c2)n1 (stereo not shown) [(A50), 2-amino-4-(1-fluoropropyl)-6-[1-(3-chloro-4-fluorophenyl)ethyl]-1,3,5-triazine]
[1]
  APESV [effect in %]: 0%
Winter wheat
  Winter wheat [damage in %]: 0%

## CCC(F)c1nc(N)nc(C(C)c2cc(F)cc(F)c2)n1 (stereo not shown) [(A60), 2-amino-4-(1-fluoropropyl)-6-[1-(3,5-difluorophenyl)ethyl]-1,3,5-triazine]
[1]
  APESV [effect in %]: 0%
Winter wheat
  Winter wheat [damage in %]: 0%

## CS(=O)(=O)c1cc(C(F)(F)F)ccc1C(=O)c1cnoc1C1CC1 [(B3.4.4), isoxaflutole, reference compound]
CHEAL; dose 50 g ai/ha
  CHEAL [effect in %]: 25%
ECHCG; dose 50 g ai/ha
  ECHCG [effect in %]: 86%
Corn; corn, in vivo, 36 days
  Corn [damage in %]: 0%
